Reference: US20170313669A1, “LACTONE COMPOUNDS AND METHODS OF MAKING AND USING SAME” (THE SCRIPPS RESEARCH INSTITUTE, priority 2015, published 2017)

What was measured:
[1] = Lipid substrate hydrolysis assay, mock-transfected HEK293T membrane proteome; format: biochemical; details: substrate 100 μM
Experimental: (§1) All the lipid species used in the lipid substrate hydrolysis assays were purchased from Avanti Polar Lipids Inc unless mentioned otherwise. In general, 20 μg of proteome was incubated with 100 μM lipid in a reaction volume of 100 μL in PBS at 30° C. with constant shaking. After 30 minutes the reaction was quenched with 350 μL of 2:1 (vol/vol) CHCl3: MeOH, doped with 0.5 nmol internal standard (17:1 FFA). The mixture was vortexed, and the centrifuged at 2800×g for 5 minutes to separate the aqueous (top) and organic (bottom) phase. The organic phase was collected. 5 μL of formic acid was added to the aqueous phase, and extracted again using 350 μL of 2:1 (vol/vol) CHCl3: MeOH using above mentioned protocol. The organic phase was collected, and pooled with the organic phase from the first extraction. […] All the data was collected and analyzed using the Agilent MassHunter Workstation software version B.04 using the Data Acquisition and Quantitative Analysis programs respectively. Measuring the area under the peak, and normalizing it to the internal standard quantified the product release for the lipid substrate hydrolysis assays. […] Some products from the substrate hydrolysis assays were detected in positive ion mode for qualitative identification. […]

ABHD16A (mouse) = target: T1, ABHD16A (mouse) (Mus musculus, UniProt Q9Z1Q2); experiment: Lipid substrate hydrolysis assay, murine ABHD16A-transfected HEK293T membrane proteome; format: biochemical; details: substrate 100 μM
T1 construct: full-length cDNA of human ABHD16A (Open Biosystems Catalog # MHS6278-202758315) or murine ABHD16A (Open Biosystems Catalog # MMM1013-202760516) in pCMV-SPORT6 vector; host or cells: HEK293T
T1 sequence (Q9Z1Q2 whole entry): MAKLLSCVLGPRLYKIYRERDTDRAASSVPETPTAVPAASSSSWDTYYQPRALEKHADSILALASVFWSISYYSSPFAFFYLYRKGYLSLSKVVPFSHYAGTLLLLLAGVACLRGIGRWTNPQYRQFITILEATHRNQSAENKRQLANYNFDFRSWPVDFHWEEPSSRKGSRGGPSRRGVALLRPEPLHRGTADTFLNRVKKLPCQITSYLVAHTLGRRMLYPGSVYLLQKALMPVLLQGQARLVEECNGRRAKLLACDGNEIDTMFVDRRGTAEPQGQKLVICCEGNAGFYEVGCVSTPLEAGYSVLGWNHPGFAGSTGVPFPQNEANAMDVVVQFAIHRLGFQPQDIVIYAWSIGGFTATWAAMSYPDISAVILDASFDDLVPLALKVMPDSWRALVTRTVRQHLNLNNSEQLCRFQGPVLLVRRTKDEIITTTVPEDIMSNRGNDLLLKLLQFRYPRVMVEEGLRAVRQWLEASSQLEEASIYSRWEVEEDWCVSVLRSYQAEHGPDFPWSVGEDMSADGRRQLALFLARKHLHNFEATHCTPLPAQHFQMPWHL
Experimental: as §1

What does the source list for PG 16:0/18:1?
Lipase activity, Mock, Mean [1]: 3.8 nmol/mg/min; Lipase activity, ABHD16A, Mean (ABHD16A (mouse)): 12.5 nmol/mg/min
